Like-named read-outs stand apart in the source and are kept apart here.
Tests used:
[1] = biological target: T1, human GIP receptor (hGIPR) (Homo sapiens, UniProt P48546); assay: [125I]-GIP binding, SPA with membranes of CHO cells expressing hGIPR
T1 construct: expressed in transfected cells; crude membranes
T1 sequence (P48546 22-466): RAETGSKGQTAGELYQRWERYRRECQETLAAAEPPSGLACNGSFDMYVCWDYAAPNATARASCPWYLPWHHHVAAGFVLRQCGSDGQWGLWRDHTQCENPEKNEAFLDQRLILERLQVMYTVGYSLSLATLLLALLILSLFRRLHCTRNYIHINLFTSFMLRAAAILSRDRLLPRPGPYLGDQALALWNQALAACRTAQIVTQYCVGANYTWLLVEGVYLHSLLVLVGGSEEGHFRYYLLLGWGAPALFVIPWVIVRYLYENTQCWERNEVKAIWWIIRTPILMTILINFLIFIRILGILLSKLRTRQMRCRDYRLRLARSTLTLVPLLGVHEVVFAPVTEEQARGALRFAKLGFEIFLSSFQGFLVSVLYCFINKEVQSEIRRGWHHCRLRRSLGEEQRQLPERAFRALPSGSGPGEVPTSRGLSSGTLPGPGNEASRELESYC

hGIPR = biological target: T2, hGIPR (Homo sapiens, UniProt P48546); assay: Functional cAMP formation (HTRF) in HEK-293 clonal cells expressing hGIPR, 0.1% bovine casein, without or with 1.0% human serum albumin; assay type: cell-based; conditions: for EC50: geometric mean
T2 construct: expressed in transfected cells
T2 sequence (P48546 22-466): T1 sequence (P48546 22-466)
Summary of the method: (§1)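 Cells were stimulated with peptide for 30 min at 37° C, then intracellular cAMP was measured by competitive HTRF (665/620 nm ratio) and converted to nM using a cAMP standard curve. Relative EC50 and Emax came from four-parameter logistic fits of percent maximal response against peptide concentration.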

hGCGR = biological target: T3, hGCGR (Homo sapiens, UniProt P47871); assay: Functional cAMP formation (HTRF) in HEK-293 clonal cells expressing hGCGR, 0.1% bovine casein, without or with 1.0% human serum albumin; assay type: cell-based
T3 construct: expressed in transfected cells
Summary of the method: as §1

hGLP-1R = hGLP-1R (Homo sapiens, UniProt P43220); assay: Functional cAMP formation (HTRF) in HEK-293 clonal cells expressing hGLP-1R, 0.1% bovine casein, without or with 1.0% human serum albumin; assay type: cell-based; parameters: expressed in transfected cells
Summary of the method: as §1

[2] = human GIPR, geometric mean (SEM, n), read-out: Binding Affinity Ki, nM (SEM, n) hGIPR
[3] = cAMP, incubated at 37° C., 0.1% bovine casein (no human serum albumin), read-out: hGIPR EC50, nM (SEM, n)
[4] = 0.1% bovine casein and 1.0% human serum albumin, 37° C., geometric mean, read-out: hGCGR EC50, nM (SEM, n)
[5] = cAMP, incubated at 37° C., 0.1% bovine casein (no human serum albumin), geometric mean, read-out: hGCGR EC50, nM (SEM, n)
[6] = cAMP, incubated at 37° C., 0.1% bovine casein (no human serum albumin), geometric mean, read-out: hGLP-1R EC50, nM (SEM, n)

T3 sequence (P47871 26-477): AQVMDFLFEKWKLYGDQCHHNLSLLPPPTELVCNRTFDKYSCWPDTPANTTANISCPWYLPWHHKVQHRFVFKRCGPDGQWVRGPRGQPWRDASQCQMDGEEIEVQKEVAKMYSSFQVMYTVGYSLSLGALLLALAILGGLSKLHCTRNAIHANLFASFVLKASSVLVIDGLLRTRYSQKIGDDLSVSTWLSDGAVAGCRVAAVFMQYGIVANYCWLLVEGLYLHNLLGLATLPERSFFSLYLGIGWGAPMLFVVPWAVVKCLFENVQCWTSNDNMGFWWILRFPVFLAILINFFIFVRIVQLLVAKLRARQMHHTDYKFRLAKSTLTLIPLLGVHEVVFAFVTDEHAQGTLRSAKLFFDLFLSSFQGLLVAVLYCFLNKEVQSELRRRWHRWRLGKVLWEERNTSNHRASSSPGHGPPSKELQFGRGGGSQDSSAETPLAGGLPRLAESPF
Chain of hGLP-1R (P43220 24-463): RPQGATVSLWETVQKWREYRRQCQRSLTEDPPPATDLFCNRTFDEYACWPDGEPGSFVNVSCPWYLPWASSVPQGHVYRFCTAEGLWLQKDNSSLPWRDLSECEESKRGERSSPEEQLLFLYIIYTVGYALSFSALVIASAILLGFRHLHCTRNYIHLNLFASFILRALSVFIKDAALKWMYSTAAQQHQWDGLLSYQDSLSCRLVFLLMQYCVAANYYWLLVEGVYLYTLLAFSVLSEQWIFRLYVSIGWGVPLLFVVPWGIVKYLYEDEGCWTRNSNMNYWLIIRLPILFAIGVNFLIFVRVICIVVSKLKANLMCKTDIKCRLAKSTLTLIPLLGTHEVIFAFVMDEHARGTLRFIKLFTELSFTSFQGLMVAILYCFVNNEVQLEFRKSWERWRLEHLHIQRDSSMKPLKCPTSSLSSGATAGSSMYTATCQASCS

## CC[C@H](C)[C@H](NC(=O)[C@H](CC(C)C)NC(=O)[C@](C)(Cc1ccc(O)cc1)NC(=O)[C@@H](CCC(=O)O)NC(=O)[C@@H](NC(=O)[C@H](Cc1ccccc1)NC(=O)[C@H](CCC(=O)O)NC(=O)C(C)(C)NC(=O)[C@H](CCC(N)=O)NC(=O)[C@H](C)NC(=O)[C@H](CCCCNC(=O)[C@@H](N)CCCCNC(=O)[C@@H](N)CCCCNC(=O)CC[C@H](NC(=O)CCCCCCCCCCCCC(=O)O)C(=O)O)NC(=O)[C@H](CCCN)NC(=O)[C@H](CC(=O)O)NC(=O)[C@H](CC(C)C)NC(=O)[C@](C)(CC(C)C)NC(=O)[C@@H](NC(=O)[C@H](CO)NC(=O)[C@H](Cc1ccncc1)NC(=O)[C@H](CC(=O)O)NC(=O)[C@H](CO)NC(=O)[C@@H](NC(=O)[C@](C)(Cc1ccccc1F)NC(=O)[C@@H](NC(=O)CNC(=O)[C@H](CCC(=O)O)NC(=O)C(C)(C)NC(=O)[C@@H](N)Cc1ccc(O)cc1)[C@@H](C)O)[C@@H](C)O)[C@@H](C)CC)[C@@H](C)CC)C(=O)N[C@@H](CCC(=O)O)C(=O)NCC(=O)NCC(=O)N[C@@H](CCCCNC(=O)[C@@H](N)CCCCNC(=O)[C@@H](N)CCCCNC(=O)CC[C@H](NC(=O)CCCCCCCCCCCCC(=O)O)C(=O)O)C(=O)N[C@@H](CO)C(=O)N[C@@H](CO)C(=O)NCC(=O)N[C@@H](C)C(=O)N1CCC[C@H]1C(=O)N1CCC[C@H]1C(=O)N1CCC[C@H]1C(=O)N[C@@H](CO)C(N)=O [Example 40]
[1]; [2]
  Ki: 0.163 nM
hGIPR; 0.1% bovine casein and 1.0% human serum albumin, 37° C., read-out: hGIPR EC50, nM (SEM, n)
  EC50: 0.301 nM
hGIPR; [3]
  EC50: 0.0116 nM
hGCGR; [4]
  EC50: > 9950 nM
hGCGR; [5]
  EC50: > 9950 nM
hGLP-1R; 0.1% bovine casein and 1.0% human serum albumin, 37° C., geometric mean, read-out: hGLP-1R EC50, nM (SEM, n)
  EC50: 6.69 nM
hGLP-1R; [6]
  EC50: 0.279 nM

## CC[C@H](C)[C@H](NC(=O)[C@H](CC(C)C)NC(=O)[C@](C)(Cc1ccc(O)cc1)NC(=O)[C@@H](CCC(=O)O)NC(=O)[C@@H](NC(=O)[C@H](Cc1ccccc1)NC(=O)[C@H](CCC(=O)O)NC(=O)C(C)(C)NC(=O)[C@H](CCC(N)=O)NC(=O)[C@H](C)NC(=O)[C@H](CCCCNC(=O)COCCOCCNC(=O)COCCOCCNC(=O)CC[C@H](NC(=O)CCCCCCCCCCCCC(=O)O)C(=O)O)NC(=O)[C@H](CCCN)NC(=O)[C@H](CC(=O)O)NC(=O)[C@H](CC(C)C)NC(=O)[C@](C)(CC(C)C)NC(=O)[C@@H](NC(=O)[C@H](CO)NC(=O)[C@H](CCc1ccc(O)cc1)NC(=O)[C@H](CC(=O)O)NC(=O)[C@H](CO)NC(=O)[C@@H](NC(=O)[C@](C)(Cc1ccccc1F)NC(=O)[C@@H](NC(=O)CNC(=O)[C@H](CCC(=O)O)NC(=O)C(C)(C)NC(=O)[C@@H](N)Cc1ccc(O)cc1)[C@@H](C)O)[C@@H](C)O)[C@@H](C)CC)[C@@H](C)CC)C(=O)N[C@@H](CCC(=O)O)C(=O)NCC(=O)NCC(=O)N[C@@H](CCCCNC(=O)COCCOCCNC(=O)COCCOCCNC(=O)CC[C@H](NC(=O)CCCCCCCCCCCCC(=O)O)C(=O)O)C(=O)N[C@@H](CO)C(=O)N[C@@H](CO)C(=O)NCC(=O)N[C@@H](C)C(=O)N1CCC[C@H]1C(=O)N1CCC[C@H]1C(=O)N1CCC[C@H]1C(=O)N[C@@H](CO)C(N)=O [Example 59]
[1]; [2]
  Ki: 0.171 nM
hGIPR; HEK293, 0.1% bovine casein and 1.0% human serum albumin, 37° C., percent of maximal response to GIP(1-42)NH2, read-out: hGIPR Emax, % ± SEM
  Emax: 90.3 ± 3.64%
hGIPR; HEK293, percent of maximal response to GIP(1-42)NH2, 37° C., 0.1% bovine casein, arithmetic mean, read-out: hGIPR Emax, % ± SEM
  Emax: 89.2 ± 4.62%
hGIPR; [3]
  EC50: 0.024 nM
hGCGR; [4]
  EC50: > 9950 nM
hGCGR; [5]
  EC50: > 9950 nM
hGLP-1R; [6]
  EC50: 0.202 nM

## CCCCCCCCCCCC(=O)N[C@@H](CCC(=O)NCCOCCOCC(=O)NCCOCCOCC(=O)NCCOCCOCC(=O)NCCCC[C@H](NC(=O)[C@H](CCCN)NC(=O)[C@H](CC(=O)O)NC(=O)[C@H](CC(C)C)NC(=O)[C@](C)(CC(C)C)NC(=O)[C@@H](NC(=O)C(C)(C)NC(=O)[C@H](CCCCNC(=O)COCCOCCNC(=O)COCCOCCNC(=O)COCCOCCNC(=O)CC[C@H](NC(=O)CCCCCCCCCCC)C(=O)O)NC(=O)[C@H](CC(=O)O)NC(=O)[C@H](CO)NC(=O)[C@@H](NC(=O)[C@](C)(Cc1ccccc1F)NC(=O)[C@@H](NC(=O)CNC(=O)[C@H](CCC(=O)O)NC(=O)C(C)(C)NC(=O)[C@@H](N)Cc1ccc(O)cc1)[C@@H](C)O)[C@@H](C)O)[C@@H](C)CC)C(=O)N[C@@H](C)C(=O)N[C@@H](CCC(N)=O)C(=O)NC(C)(C)C(=O)N[C@@H](CCC(=O)O)C(=O)N[C@@H](Cc1ccccc1)C(=O)N[C@H](C(=O)N[C@H](CCC(=O)O)C(=O)N[C@@](C)(Cc1ccc(O)cc1)C(=O)N[C@@H](CC(C)C)C(=O)N[C@H](C(=O)N[C@@H](CCC(=O)O)C(=O)NCC(=O)NCC(=O)N1CCC[C@H]1C(=O)N[C@@H](CO)C(=O)N[C@@H](CO)C(=O)NCC(=O)N[C@@H](C)C(=O)N1CCC[C@H]1C(=O)N1CCC[C@H]1C(=O)N1CCC[C@H]1C(=O)N[C@@H](CO)C(N)=O)[C@@H](C)CC)[C@@H](C)CC)C(=O)O [Example 421]
[1]; [2]
  Ki: 0.0245 nM
hGIPR; HEK293, cAMP, 37° C., 0.1% bovine casein and 1.0% human serum albumin, percent of maximal response to GIP(1-42)NH2, read-out: hGIPR Emax, % ± SEM
  Emax: 98%
hGIPR; HEK293, cAMP, 37° C., 0.1% bovine casein, percent of maximal response to GIP(1-42)NH2, arithmetic mean, read-out: hGIPR Emax, % ± SEM
  Emax: 100%
hGIPR; cAMP, 37° C., 0.1% bovine casein (no human serum albumin), read-out: hGIPR EC50, nM (SEM, n)
  EC50: 0.00618 nM
hGCGR; cAMP, 37° C., 0.1% bovine casein (no human serum albumin), geometric mean, read-out: hGCGR EC50, nM (SEM, n)
  EC50: > 9950 nM
hGCGR; cAMP, 37° C., 0.1% bovine casein and 1.0% human serum albumin, geometric mean (SEM, n), read-out: hGCGR EC50, nM (SEM, n)
  EC50: > 9950 nM
hGLP-1R; HEK293, cAMP, 37° C., 0.1% bovine casein and 1.0% human serum albumin, percent of maximal response to GLP-1(7-36)NH2, read-out: hGLP-1R Emax, % ± SEM
  Emax: 105%
hGLP-1R; cAMP, 37° C., 0.1% bovine casein (no human serum albumin), geometric mean, read-out: hGLP-1R EC50, nM (SEM, n)
  EC50: 0.057 nM

## CC[C@H](C)[C@H](NC(=O)[C@H](CC(C)C)NC(=O)[C@](C)(Cc1ccc(O)cc1)NC(=O)[C@H](CCCCNC(=O)COCCOCCNC(=O)COCCOCCNC(=O)CC[C@H](NC(=O)CCCCCCCCCOc1ccc(C(=O)O)cc1)C(=O)O)NC(=O)[C@@H](NC(=O)[C@H](Cc1ccccc1)NC(=O)[C@H](CCCN)NC(=O)C(C)(C)NC(=O)[C@H](CCC(N)=O)NC(=O)[C@H](C)NC(=O)[C@H](CCC(N)=O)NC(=O)[C@H](CCCN)NC(=O)[C@H](CC(=O)O)NC(=O)[C@H](CC(C)C)NC(=O)[C@](C)(CC(C)C)NC(=O)[C@@H](NC(=O)C(C)(C)NC(=O)[C@H](Cc1ccncc1)NC(=O)[C@H](CC(=O)O)NC(=O)[C@H](CO)NC(=O)[C@@H](NC(=O)[C@](C)(Cc1ccccc1F)NC(=O)[C@@H](NC(=O)CNC(=O)[C@H](CCC(=O)O)NC(=O)C(C)(C)NC(=O)[C@@H](N)Cc1ccc(O)cc1)[C@@H](C)O)[C@@H](C)O)[C@@H](C)CC)[C@@H](C)CC)C(=O)N[C@@H](CCCCNC(=O)COCCOCCNC(=O)COCCOCCNC(=O)CC[C@H](NC(=O)CCCCCCCCCOc1ccc(C(=O)O)cc1)C(=O)O)C(=O)NCC(=O)NCC(=O)N1CCC[C@H]1C(=O)N[C@@H](CO)C(=O)N[C@@H](CO)C(=O)NCC(=O)N[C@@H](C)C(=O)N1CCC[C@H]1C(=O)N1CCC[C@H]1C(=O)N1CCC[C@H]1C(=O)N[C@@H](CO)C(N)=O [Example 440]
[1]
  Ki: 0.0312 nM
hGIPR; HEK293, read-out: hGIPR Emax, % ± SEM, cAMP, 37° C., 0.1% bovine casein and 1.0% human serum albumin, percent of maximal response to GIP(1-42)NH2
  Emax: 90.3%
hGIPR; hGIPR EC50, nM (SEM, n), cAMP, 37° C., 0.1% bovine casein (no human serum albumin)
  EC50: 0.0104 nM
hGCGR; hGCGR EC50, nM (SEM, n), cAMP, 37° C., 0.1% bovine casein (no human serum albumin), geometric mean
  EC50: > 10100 nM
hGCGR; hGCGR EC50, nM (SEM, n), cAMP, 37° C., 0.1% bovine casein and 1.0% human serum albumin, geometric mean (SEM, n)
  EC50: > 10100 nM
hGLP-1R; hGLP-1R EC50, nM (SEM, n), cAMP, 37° C., 0.1% bovine casein (no human serum albumin), geometric mean
  EC50: 0.18 nM
hGLP-1R; hGLP-1R EC50, nM (SEM, n), cAMP, 37° C., 0.1% bovine casein and 1.0% human serum albumin, geometric mean (SEM, n)
  EC50: 2.74 nM

From patent US20230265151A1, “GIP/GLP1 CO-AGONIST COMPOUNDS” (priority 2020, published 2023)
